We go through one substance from patent publication US7960131B2, “Functional genomic pore assay for mixed cell populations” (Wisconsin Alumni Research Foundation, priority 2003, dated 2011).

Several values for one entry are separate records, joined by “and”; a condition that tells them apart may be missing. Identical values can stand only once.

In one test the target is T1, P2X7 (Homo sapiens, UniProt Q99572).
T1 construct: host or cells: astrocytoma cell line (the earlier reading names it 1321N1)
T1 sequence (Q99572 1-595): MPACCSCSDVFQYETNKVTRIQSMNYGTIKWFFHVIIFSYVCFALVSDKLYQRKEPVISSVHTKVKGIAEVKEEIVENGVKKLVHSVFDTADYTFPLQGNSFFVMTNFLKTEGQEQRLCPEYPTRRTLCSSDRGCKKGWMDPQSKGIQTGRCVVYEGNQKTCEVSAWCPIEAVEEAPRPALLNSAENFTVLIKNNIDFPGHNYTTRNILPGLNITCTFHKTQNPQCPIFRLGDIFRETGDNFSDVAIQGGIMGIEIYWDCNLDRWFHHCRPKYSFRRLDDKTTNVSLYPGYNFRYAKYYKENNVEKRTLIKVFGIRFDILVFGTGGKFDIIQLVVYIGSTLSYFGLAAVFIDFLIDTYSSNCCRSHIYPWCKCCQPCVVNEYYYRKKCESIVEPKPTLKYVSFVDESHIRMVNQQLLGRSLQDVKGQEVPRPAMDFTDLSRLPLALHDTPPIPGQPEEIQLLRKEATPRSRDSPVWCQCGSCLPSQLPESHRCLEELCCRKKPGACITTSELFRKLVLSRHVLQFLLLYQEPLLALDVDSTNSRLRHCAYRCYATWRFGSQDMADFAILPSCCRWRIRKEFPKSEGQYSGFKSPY
Briefly: YO-PRO-1 plate assay of P2X7 agonists with astrocytoma cell line 1321N1.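 For all read-outs here: dye uptake read after 20 min agonist exposure with YO-PRO-1 present, unbound dye removed by washing before reading in a fluorescence plate reader.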 In kind it is cell-based. Conditions: for YO-PRO-1 fluorescence (485/20, 528/20), single well: 5 × 10^4 1321N1 cells; for YO-PRO-1 fluorescence, average of duplicate wells: 1321N1 cells, agent + YOPRO.

Another test deals with P2X7 receptor. Briefly: Bead-standardized whole blood/PBMC monocyte P2X7 pore assay with PI exclusion of nonviable cells. In kind it is cell-based, human. The following applies: for BzATP Stimulated YO-PRO-1 measurement, Mean: viable monocytes. How it is done: PBMC Isolation. Six mLs of citrate-treated blood was underlayed with three mLs of Lymphoprep (Axis-Sheild, Oslo, Norway) and centrifuged at 800 g for 30 minutes at room temperature. The cellular interface was collected and washed twice with sterile phosphate-buffered saline (PBS). Cells were counted and assayed for pore activity as described below.
Sample Preparation. Although all leukocytes studied to date express P2X7, monocytes were selected as the cell population to screen because of the greater sensitivity of pore function noted between individuals participating in a small study with forty-five healthy subjects (5, 34). Staining procedures were as previously described (10, 14, 34). Briefly, aliquots of citrated whole blood ([…]) were washed twice in HEPES-buffered saline (HBS; 130 mM NaCl, 5 mM KCl, 20 mM HEPES pH 7.4, 0.1% bovine serum albumin, 10 mM glucose; components purchased at Sigma, St. Louis, Mo.) and resuspended in the original 500 L volume. A 10 μL aliquot of anti-human CD14 antibody conjugated to phycoerythrin (CD14-PE, 50 μg/mL; BD Biosciences, San Diego, Calif.) was added to each sample and incubated at room temperature for 20 min. The cells were washed twice in a potassium glutamate buffer (130 mM potassium glutamate, 5 mM KCl, 20 mM HEPES pH 7.4, 0.1% bovine serum albumin, 10 mM glucose; components from Sigma) to maximize the differences between high and low pore activities (17).
Samples were adjusted to 10 mM magnesium chloride, washed in HEPES-buffered saline and diluted to a volume of 2.5 mL in HBS. These latter steps have been previously shown to close the pore rapidly allowing for kinetic precision in a large clinical study (10, 34). For the methods described here, including all the samples from the MIA trial (Table 3), propidium iodide (PI; 5 μg/mL) was added to each sample and incubated for 15 min prior to sample acquisition using flow cytometry as described below.
Determination of Instrument Settings and Calculation of Spectral Overlap. All instruments in the facility are cleaned daily and assessed for laser alignment, photomultiplier tube (PMT) performance, linearity and noise. All fluorochromes were excited with a 488 nm laser and the following filter sets were used in all flow cytometers: a BP 530/30 for YO-PRO-1, a BP 585/42 for PE and a LP 670 for propidium iodide. Experiments were performed on FACScan, FACSCalibur, and LSR II flow cytometers (Becton Dickinson, San Jose, Calif.) in conjunction with the CellQuest, CellQuestPro, FACSDiva acquisition and analysis software programs (v. 3.3, v. 4.0, and v. 5.0.1, respectively; Becton Dickinson).
Previously, pore activity was measured on a FACScan flow cytometer (Becton Dickinson, San Jose, Calif.) using recalled instrument settings: YO-PRO-1 at 410 mV, PE at 412 mV, acquisition threshold for PE at 324 mV, and PE-32.6% YO-PRO-1 compensation (10). To facilitate comparisons across instrument platforms and among laboratories, we used these recalled settings as a template to adapt desired PMT voltages for SpheroTM Rainbow fluorescent particles (mid-range 3.0-3.4 μm; Sperotech, Lake Forest Ill.), corresponding data shown in FIG. 15. Rainbow particles have a very stable fluorescence and can be stored and used over a long period of time, allowing the intensities of these particles in each fluorescent detector to serve as target values for determining the voltages applied to each PMT for all of the cytometers used.
The same target values were used for the analog instruments, FACScan and FACSCalibur (BD Biosciences, San Jose, Calif.) because these instruments process fluorescence signals in the same way and the intensities determined were very close (data not shown). The LSR II (BD Biosciences, San Jose, Calif.) uses digital processing and fluorescence is collected and sampled differently so a second set of target values using these same samples was determined for each color detector on this cytometer. […]

On to “2′-3′-O-(4-benzoylbenzoyl)-adenosine 5′-triphosphate [Bz-ATP]”, for which the “YO-PRO-1 fluorescence (485/20, 528/20), single well” value on P2X7 (agent 1 μM + YOPRO) is 98 and 89; on P2X7 (agent 3 μM + YOPRO), 188; at P2X7 (agent 10 μM + YOPRO) it was 213; on P2X7 (agent 30 μM + YOPRO), 217; on P2X7 (agent 100 μM + YOPRO), 223 and 214; at P2X7 (agent 300 μM + YOPRO), 220 and 232. The “YO-PRO-1 fluorescence, average of duplicate wells” value at P2X7 (1 uM) came to 93.5; on P2X7 (3 uM), 188. Further, the “BzATP Stimulated median YO-PRO-1 fluorescence” value was found to be 292 in the test with P2X7 receptor (Ficoll prep PBMC, A, Bead-Adjusted compensation); 276 with P2X7 receptor (Whole blood, A, Bead-Adjusted compensation); 30.7 in the test with P2X7 receptor (Whole blood, B, Uncompensated); 27.4 in the test with P2X7 receptor (Whole blood, B, YO-PRO-PE Set at 2%); 1071 in the test with P2X7 receptor (Whole blood, C, Uncompensated); 1067 with P2X7 receptor (Whole blood, C, YO-PRO-PE Set at 2%). In addition, the “BzATP Stimulated YO-PRO-1 measurement, Mean” value with P2X7 receptor (Low Responder donor, Bead Adjusted PMT method) was 30.1; in the test on P2X7 receptor (Low Responder donor, Recalled PMT method), 30.0; with P2X7 receptor (Normal Responder donor, Bead Adjusted PMT method), 1019.0; with P2X7 receptor (Normal Responder donor, Recalled PMT method) it was 983.0.
